Earlier results, collected in US20100056488A1, “CORTICOSTEROID CONJUGATES AND USES THEREOF” (The McLean Hospital Corporation, priority 2002, published 2010).

How the values were obtained:
[1] = test system: cortisol production or ACTH; settings: suppression of cortisol production or ACTH
[2] = test system: corticosterone production; settings: suppression for 24 hours
[3] = test system: ether-stress induced increase in corticosterone; settings: dose 0.025 mg/kg; higher dose necessary to fully eliminate response

Q: Which CNS activity [1] does the source give for `C[C@]12CCC(=O)C=C1CC[C@@H]1[C@@H]2[C@@H](O)C[C@@]2(C)[C@H]1CC[C@]2(O)C(=O)COC(=O)CCC(=O)O` [Hydrocortisone sodium succinate] here?
A: CNS active

Q: Which “lowest dose fully effective in suppressing basal corticosterone production” value [2] does the source give for `C[C@@H]1C[C@H]2[C@@H]3CCC4=CC(=O)C=C[C@]4(C)[C@@]3(F)[C@@H](O)C[C@]2(C)[C@@]1(O)C(=O)CO` [dexamethasone] here?
A: 0.025 mg/kg

Q: And the “suppression of ether-stress induced increase in corticosterone” value [3]?
A: significantly suppressed
